Measured values published in US20240139221A1, “TREATMENT OF HPV-INDUCED NEOPLASIA” (priority 2022, published 2024).

Key:
[1] = Hygroscopicity by DVS at 25° C.; assay type: physicochemical; settings: for Hygroscopicity (in words): DVS 25° C.; for XRPD after DVS test: after 40-0-95-0-40% RH cycle, 25° C.
Method: Hygroscopicity was investigated by DVS at 25° C., using the following method: […]

[2] = Polymorph screening by equilibration in solvents at 25° C. (crystal modification, XRPD); assay type: physicochemical
physchem = settings: for solubility / solubility at 0.5 h / solubility at 2 h: 37 °C, thermodynamic from solid; for pH of solution, 2 hours / Solubility 2 hours: 37° C.; for Solubility 2 hours: target 10 mg/5 mL
Method: About 4 mg of Compound I Pattern 1 was added into 2 mL of buffer solution.
(§1) Solubility was tested in five media, pH 3.0 citrate buffer, pH 4.5 acetate buffer, pH 6.8 phosphate buffer, water, simulated vaginal fluid (pH 4.2) at 37° C. for 0.5 h and 2 h.
The salt amount used is equivalent to 10 mg anhydrous free base. […] The obtained clear solutions were analyzed by pH meter for pH, and solubility was determined by observation.
as §1

[3] = Bulk stability (accelerated stability, one week; HPLC and XRPD); settings: for physical and chemical stability (in words): 25° C./92% RH open, 40° C./75% RH open, 60° C. tight container, one week; for Bulk (XRPD) / Color / Purity, Bulk (HPLC): Solid state, 1 week; for Initial HPLC purity: before storage
Method: Bulk stability: Accelerated stability experiments were conducted at 25° C./92% RH and 40° C./75% RH in an open container, 60° C. in a tight container for one week.
Samples were characterized by XRPD and HPLC and inspected for color change.
Accelerated stability experiments were conducted at 25° C./92% RH in an open container, at 40° C./75% RH in an open container, and at 60° C. in a tight container for one week.

[4] = Ex vivo permeation and penetration across porcine vaginal tissue (Franz diffusion cells, IVPT); assay type: in vitro ADME; settings: FIG. 116
Description: (§2) FIG. 116 is an in vitro tissue permeation test in vaginal tissue comparing Compound II to ABI-1968. […] Bars B and C show the tissue penetration of a 0.1% Compound II gel in human cervical tissue. […] This may be a contributing factor to the performance of ABI-1968 in clinical studies. […] This is described in Example 41.
Freshly harvested porcine vaginal tissue was procured from local slaughterhouse in an ice box. The vaginal tissue was cut open to expose the mucosal surface and tissue was cleaned by gentle flow of PBS pH 7.4. The porcine vaginal tissue was cut into circular portions (approximately 2 cm^2) with help of a […] punch.
The circular portion of tissue was sandwiched between two chambers of a Franz diffusion cell with an active diffusion area of 1 cm^2, and the mucosal layer was exposed to the donor chambers. The resistance across porcine vaginal tissue was measured using a wave form generator to ensure the integrity of the tissue segment used for the permeation study. Porcine vaginal tissue with resistance of ≥3 KΩ·cm^2 was used for study. The receiver chamber was filled with 8 ml of 5% solutol PBS 7.4 pH, which was stirred at 600 rpm with a 3 mm magnetic stir bar and the temperature was maintained at 37° C. with a circulating water bath.
The ˜200 mg of gel was filled into tared 1 mL syringe and gel was dispensed to donor chamber. […]

[5] = In vitro tissue permeation test in human cervical tissue; assay type: in vitro ADME; settings: 0.1% gel, FIG. 116
Description: as §2

[6] = cycle of 40-0-95-0-45% relative humidity
[7] = PS7, solvent IPA/heptanes (3/10, v/v)
[8] = PS8, solvent water/ACN (2.9/97.1, v/v)
[9] = PS9, solvent IPA/MTBE (1/3, v/v)
[10] = PS10, solvent EA/toluene (1/3, v/v)
[11] = pH 4.2, fassgf or other biorelevant
[12] = Simulated vaginal fluid (pH adjusted by 0.1N NaOH)

CCOC(=O)[C@H](C)N[P@](=O)(COCCn1cnc2c(OC)nc(N)nc21)OCc1ccccc1 (single isomer, unassigned) [Compound III, monofumarate]
Hygroscopicity (in words) [1]: slightly hygroscopic
XRPD after DVS test [1]: No form change
XRPD pattern after humidity cycle [1, 6]: lose one of the peaks
increase in retained water content versus Compound II [1, 6]: 40 fold
Crystal modification after 1 week equilibration at 25° C. ([2]; PS1, solvent IPA): Compound V Pattern 2
Crystal modification after 1 week equilibration at 25° C. ([2]; PS2, solvent Heptanes): Compound III Pattern 2
Crystal modification after 1 week equilibration at 25° C. ([2]; PS3, solvent Water): Compound III Pattern 3
Crystal modification after 1 week equilibration at 25° C. ([2]; PS4, solvent ACN): Compound III Pattern 4
Crystal modification after 1 week equilibration at 25° C. ([2]; PS5, solvent MEK): Compound III Pattern 5
Crystal modification after 1 week equilibration at 25° C. [2, 7]: Compound III Pattern 2
Crystal modification after 1 week equilibration at 25° C. [2, 8]: Compound III Pattern 4
Crystal modification after 1 week equilibration at 25° C. [2, 9]: Compound III Pattern 6
Crystal modification after 1 week equilibration at 25° C. [2, 10]: Compound III Pattern 2
solubility (physchem; aqueous buffer): > 2000 µg/mL
solubility (physchem; pH 3, aqueous buffer): > 2000 µg/mL
solubility (physchem; [11]): > 2000 µg/mL
solubility (physchem; pH 4.5, aqueous buffer): > 2000 µg/mL
solubility (physchem; pH 6.8, aqueous buffer): > 2000 µg/mL
solubility (physchem; water): > 2000 µg/mL
pH of solution, 2 hours (physchem; [12]): 5.37
Solubility 2 hours (physchem; [12]): > 2000 µg/mL
pH of solution, 2 hours (physchem; Water): 2.78
Solubility 2 hours (physchem; Water): > 2000 µg/mL
pH of solution, 2 hours (physchem; pH 3.0, 100 mM citrate buffer): 2.83
Solubility 2 hours (physchem; pH 3.0, 100 mM citrate buffer): > 2000 µg/mL
pH of solution, 2 hours (physchem; pH 4.5, 50 mM acetate buffer): 4.12
Solubility 2 hours (physchem; pH 4.5, 50 mM acetate buffer): > 2000 µg/mL
pH of solution, 2 hours (physchem; pH 6.8, 50 mM phosphate buffer): 6.44
Solubility 2 hours (physchem; pH 6.8, 50 mM phosphate buffer): > 2000 µg/mL
physical and chemical stability (in words) [3]: good physical stability
Bulk (XRPD) ([3]; 25° C./92% RH, open container): No form change
Color ([3]; 25° C./92% RH, open container): No change
Purity, Bulk (HPLC) ([3]; 25° C./92% RH, open container): 98.7%
Bulk (XRPD) ([3]; 40° C./75% RH, open container): No form change (One
Color ([3]; 40° C./75% RH, open container): No change
Purity, Bulk (HPLC) ([3]; 40° C./75% RH, open container): 97.2%
Bulk (XRPD) ([3]; 60° C., tight container): No form change (One
Color ([3]; 60° C., tight container): No change
Purity, Bulk (HPLC) ([3]; 60° C., tight container): 97.3%
Initial HPLC purity [3]: 98.8%

CCCCCCCCCCCCCCCCCCOCCOP(=O)(O)COCCn1cnc2c(=O)[nH]c(N)nc21 [ABI-1968, reference compound]
tissue penetration (in words) [4]: substantially smaller degree

CCOC(=O)[C@H](C)N[P@@](=O)(COCCn1cnc2c(OC)nc(N)nc21)OCc1ccccc1.O=C(O)/C=C/C(=O)O [Compound II]
Hygroscopicity (in words) [1]: slightly hygroscopic
XRPD after DVS test [1]: No form change
XRPD pattern after humidity cycle [1, 6]: does not change
Crystal modification after 1 week equilibration at 25° C. ([2]; PS1, solvent IPA): Compound II Pattern 1
Crystal modification after 1 week equilibration at 25° C. ([2]; PS2, solvent Heptanes): Compound II Pattern 1
Crystal modification after 1 week equilibration at 25° C. ([2]; PS3, solvent Water): Compound II Pattern 1
Crystal modification after 1 week equilibration at 25° C. ([2]; PS4, solvent ACN): Compound II Pattern 2
Crystal modification after 1 week equilibration at 25° C. ([2]; PS5, solvent MEK): Compound II Pattern 3
Crystal modification after 1 week equilibration at 25° C. ([2]; PS6, solvent Acetone): Compound II Pattern 1
Crystal modification after 1 week equilibration at 25° C. [2, 7]: Compound II Pattern 1
Crystal modification after 1 week equilibration at 25° C. [2, 8]: Compound II Pattern 2
Crystal modification after 1 week equilibration at 25° C. [2, 9]: Compound II Pattern 1
Crystal modification after 1 week equilibration at 25° C. [2, 10]: Compound II Pattern 1
solubility (physchem; aqueous buffer): > 2000 µg/mL
solubility at 0.5 h (physchem; pH 3, aqueous buffer): > 2000 µg/mL
solubility at 2 h (physchem; pH 3, aqueous buffer): > 2000 µg/mL
solubility at 0.5 h (physchem; [11]): > 2000 µg/mL
solubility at 2 h (physchem; [11]): > 2000 µg/mL
solubility at 0.5 h (physchem; pH 4.5, aqueous buffer): > 2000 µg/mL
solubility at 2 h (physchem; pH 4.5, aqueous buffer): > 2000 µg/mL
solubility at 0.5 h (physchem; pH 6.8, aqueous buffer): > 2000 µg/mL
solubility at 2 h (physchem; pH 6.8, aqueous buffer): > 2000 µg/mL
solubility at 0.5 h (physchem; water): > 2000 µg/mL
solubility at 2 h (physchem; water): > 2000 µg/mL
pH of solution, 2 hours (physchem; [12]): (5.79)
pH of solution, 2 hours (physchem; Water): (2.87)
pH of solution, 2 hours (physchem; pH 3.0, 100 mM citrate buffer): (2.85)
pH of solution, 2 hours (physchem; pH 4.5, 50 mM acetate buffer): (4.2)
pH of solution, 2 hours (physchem; pH 6.8, 50 mM phosphate buffer): (6.47)
tissue penetration (in words) [4]: high tissue penetration
tissue penetration (in words) [5]: high tissue penetration
physical and chemical stability (in words) [3]: good physical and chemical stability
Bulk (XRPD) ([3]; 25° C./92% RH, open container): No form change
Color ([3]; 25° C./92% RH, open container): No change
Purity, Bulk (HPLC) ([3]; 25° C./92% RH, open container): 99.5%
Bulk (XRPD) ([3]; 40° C./75% RH, open container): No form change
Color ([3]; 40° C./75% RH, open container): No change
Purity, Bulk (HPLC) ([3]; 40° C./75% RH, open container): 99.4%
Bulk (XRPD) ([3]; 60° C., tight container): No form change
Color ([3]; 60° C., tight container): No change
Purity, Bulk (HPLC) ([3]; 60° C., tight container): 99.7%
Initial HPLC purity [3]: 99.7%
